In US11236106B2, “Cycloalkane-1,3-diamine derivative” (Daiichi Sankyo Company, Limited, priority 2018, dated 2022):
pIC50: −log10 of the molar value. Structures can show the parent of a compound that is named as a salt. Where two headings read alike, the source gives them in different places.

Biological target: T1, menin and MLL (menin, Flag tagged; biotinylated MLL1 peptide 1-46aa) (Homo sapiens, UniProt O00255)
T1 sequence (O00255 1-610): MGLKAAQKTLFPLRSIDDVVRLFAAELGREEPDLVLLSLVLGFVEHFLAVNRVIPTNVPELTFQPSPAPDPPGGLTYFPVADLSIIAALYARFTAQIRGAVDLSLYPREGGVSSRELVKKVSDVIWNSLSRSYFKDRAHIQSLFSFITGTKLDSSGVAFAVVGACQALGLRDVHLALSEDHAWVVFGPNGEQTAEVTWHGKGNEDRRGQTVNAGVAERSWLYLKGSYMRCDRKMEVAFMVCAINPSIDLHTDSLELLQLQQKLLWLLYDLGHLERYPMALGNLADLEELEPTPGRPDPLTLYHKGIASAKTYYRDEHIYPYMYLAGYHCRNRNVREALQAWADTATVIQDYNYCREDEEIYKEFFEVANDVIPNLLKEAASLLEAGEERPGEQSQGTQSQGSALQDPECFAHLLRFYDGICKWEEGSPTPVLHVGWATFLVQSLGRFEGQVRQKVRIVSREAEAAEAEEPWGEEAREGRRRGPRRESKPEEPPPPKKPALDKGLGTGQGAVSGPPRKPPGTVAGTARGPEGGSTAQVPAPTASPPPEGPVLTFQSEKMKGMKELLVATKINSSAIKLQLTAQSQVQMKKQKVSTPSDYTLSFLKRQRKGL
Experiment: biochemical
Settings: for IC50: cell free IC50 (nM)

[1] = IC50, binding inhibitory activity between menin and MLL, AlphaLISA, 1 nM menin, 10 nM biotinylated MLL1 peptide
[2] = 1 nM menin, 10 nM biotinylated MLL1 peptide, AlphaLISA

Description: Then, the fluorescence signal by AlphaLISA (registered trademark, PerkinElmer Co., Ltd.) was measured using a plate reader (PerkinElmer Co., Ltd., EnVisionXcite).

Row | SMILES | pIC50 [1] | IC50 [2] | other results
1 | COc1nc(N(C)[C@H]2C[C@@H](NCc3ccc(-c4cnc(OC)c(OC)c4)cc3)C[C@H]2O)c2cc(CC(F)(F)F)sc2n1 [Example 81, (1R,2S,4R)-4-({[4-(5,6-dimethoxypyridin-3-yl)phenyl]methyl}amino)-2-{[2-methoxy-6-(2,2,2-trifluoroethyl)thieno[2,3-d]pyrimidin-4-yl](methyl)amino}cyclopentan-1-ol hydrochloride] | 8.21 |  | 
2 | Cc1ncc(-c2ccc(CN[C@H]3CC[C@@H](N(C)c4ncnc5sc(CC(F)(F)F)cc45)C3)cc2)cc1OC(F)F [Example 58, (1R,3S)-N^3-({4-[5-(difluoromethoxy)-6-methylpyridin-3-yl]phenyl}methyl)-N^1-methyl-N^1-[6-(2,2,2-trifluoroethyl)thieno[2,3-d]pyrimidin-4-yl]cyclopentane-1,3-diamine hydrochloride] |  | 15.2 nM | 
3 | COc1nc(N(C)[C@H]2C[C@@H](NCc3cccc(Nc4cccnc4)c3)C[C@H]2O)c2cc(CC(F)(F)F)sc2n1 [Example 120, (1R,2S,4R)-2-{[2-methoxy-6-(2,2,2-trifluoroethyl)thieno[2,3-d]pyrimidin-4-yl](methyl)amino}-4-[({3-[(pyridin-3-yl)amino]phenyl}methyl)amino]cyclopentan-1-ol hydrochloride] | 8.24 |  | 
4 | COc1cncc(-c2ccc(CN[C@H]3CC[C@@H](N(C)c4ncnc5sc(C6CC6)cc45)C3)cc2)c1 [Example 45, (1R,3S)-N^1-(6-cyclopropylthieno[2,3-d]pyrimidin-4-yl)-N^3-{[4-(5-methoxypyridin-3-yl)phenyl]methyl}-N^1-methylcyclopentane-1,3-diamine hydrochloride] |  | 33.3 nM | 
5 | CN(c1ncnc2sc(CC(F)(F)F)cc12)[C@@H]1CC[C@H](NCc2ccc(N3CCc4ccccc43)cc2)C1 [Example 56, (1R,3S)-N^3-{[4-(2)-3-dihydro-1H-indol-1-yl)phenyl]methyl}-N^1-methyl-N^1-[6-(2,2,2-trifluoroethyl)thieno[2,3-d]pyrimidin-4-yl]cyclopentane-1,3-diamine hydrochloride] |  | 43.6 nM | 
6 | CN(c1ncnc2sc(CC(F)(F)F)cc12)[C@@H]1CC[C@H](NCC2CCCCC2)C1 [Example 28, (1R,3S)-N^3-(cyclohexylmethyl)-N^1-methyl-N^1-[6-(2,2,2-trifluoroethyl)thieno[2,3-d]pyrimidin-4-yl]cyclopentane-1,3-diamine hydrochloride] |  | 1160 nM | 
7 | COc1cncc(-c2ccc(CN[C@@H]3C[C@H](N(C)c4ncnc5sc(CC(F)(F)F)cc45)[C@@H](O)[C@H]3O)cc2)c1 [Example 20B, (1R,2S,3R,5S)-3-({[4-(5-methoxypyridin-3-yl)phenyl]methyl}amino)-5-{methyl[6-(2,2,2-trifluoroethyl)thieno[2,3-d]pyrimidin-4-yl]amino}cyclopentane-1,2-diol Hydrochloride] |  | 16.4 nM | 
8 | CNc1nc(N(C)[C@H]2C[C@@H](NCc3ccc(-c4cnc(OC)c(OC)c4)cc3)C[C@H]2O)c2cc(CC(F)(F)F)sc2n1 [Example 73, (1R,2S,4R)-4-({[4-(5,6-dimethoxypyridin-3-yl)phenyl]methyl}amino)-2-{methyl[2-(methylamino)-6-(2,2,2-trifluoroethyl)thieno[2,3-d]pyrimidin-4-yl]amino}cyclopentan-1-ol hydrochloride] | 8.19 |  | 
9 | COc1cncc(-c2ccc(CN[C@H]3CC[C@@H](N(C)c4nc(C)nc5sc(CC(F)(F)F)cc45)C3)cn2)c1 [Example 46, (1R,3S)-N^3-[(5′-methoxy[2,3′-bipyridine]-5-yl)methyl]-N^1-methyl-N^1-[2-methyl-6-(2,2,2-trifluoroethyl)thieno[2,3-d]pyrimidin-4-yl]cyclopentane-1,3-diamine hydrochloride] |  | 39.4 nM | 
10 | COc1cc(-c2ccc(CN[C@H]3C[C@@H](O)[C@@H](N(C)c4ncnc5sc(CC(F)(F)F)cc45)C3)cc2)nnc1OC1CCCOC1 (mixture of isomers) [Example 108, (1R,2S,4R)-4-{[(4-{5-methoxy-6-[(oxan-3-yl)oxy]pyridazin-3-yl}phenyl)methyl]amino}-2-{methyl[6-(2,2,2-trifluoroethyl)thieno[2,3-d]pyrimidin-4-yl]amino}cyclopentan-1-ol hydrochloride] |  |  | pIC50: 8.89
11 | CN(c1ncnc2sc(CC(F)(F)F)cc12)[C@@H]1CC[C@H](NCc2ccc(-c3ccc(-c4ccc(Cl)nc4)nc3)cc2)C1 [Example 13, (1R,3S)—N^3-{[4-(6′-chloro[2,3′-bipyridine]-5-yl)phenyl]methyl}-N^1-methyl-N^1-[6-(2,2,2-trifluoroethyl)thieno[2,3-d]pyrimidin-4-yl]cyclopentane-1,3-diamine] |  | 7.6 nM | 
12 | [2H]C([2H])([2H])N(c1ncc(-c2ccc(CN[C@H]3C[C@@H](O)[C@@H](N(C)c4ncnc5sc(CC(F)(F)F)cc45)C3)cc2)cc1OC)C([2H])([2H])[2H] [Example 122, (1R,2S,4R)-4-({[4-(6-{bis[(^2H3)methyl]amino}-5-methoxypyridin-3-yl)phenyl]methyl}amino)-2-{methyl[6-(2,2,2-trifluoroethyl)thieno[2,3-d]pyrimidin-4-yl]amino}cyclopentan-1-ol] | 8.77 |  | 
13 | COc1cc(-c2ccc(CN[C@H]3CC[C@@H](N(C)c4ncnc5sc(CC(F)(F)F)cc45)C3)cc2)nnc1OC [Example 95, (1R,3S)-N^3-{[4-(5,6-dimethoxypyridazin-3-yl)phenyl]methyl}-N^1-methyl-N^1-[6-(2,2,2-(trifluoroethyl)thieno[2,3-d]pyrimidin-4-yl]cyclopentane-1,3-diamine hydrochloride] | 8.92 |  | 
14 | CN(c1ncnc2sc(CC(F)(F)F)cc12)[C@@H]1CC[C@H](NCc2ccc(C(=O)NCc3cnn(C)c3)cc2)C1 [Example 49, N-[(1-methyl-1H-pyrazol-4-yl)methyl]-4-({[(1S,3R)-3-{methyl[6-(2,2,2-trifluoroethyl)thieno[2,3-d]pyrimidin-4-yl]amino}cyclopentyl]amino}methyl)benzamide hydrochloride] |  | 24 nM | 
15 | COc1cncc(-c2ccc(CN[C@@H]3C[C@H](Nc4ncnc5sc(CC(F)(F)F)cc45)CC(F)(F)C3)cc2)c1 [Example 52, (1R,3S)-5,5-difluoro-N^1-{[4-(5-methoxypyridin-3-yl)phenyl]methyl}-N^3-[6-(2,2,2-trifluoroethyl)thieno[2,3-d]pyrimidin-4-yl]cyclohexane-l,3-diamine hydrochloride] |  | 612 nM | 
16 | CN(c1ncnc2cc(CC(F)(F)F)sc12)[C@@H]1CC[C@H](NCc2ccc3[nH]c(C#N)cc3c2)C1 [Example 4, 5-({[(1S,3R)-3-{methyl[6-(2,2,2-trifluoroethyl)thieno[3,2-d]pyrimidin-4-yl]amino}cyclopentyl]amino}methyl)-1H-indole-2-carbonitrile] |  | 172 nM | 
17 | COc1cncc(Nc2ccc(CN[C@H]3CC[C@@H](N(C)c4ncnc5sc(CC(F)(F)F)cc45)C3)cc2)c1 [Example 8, (1R,3S)—N^3-({4-[(5-methoxypyridin-3-yl)amino]phenyl}methyl)-N^1-methyl-N^1-[6-(2,2,2-trifluoroethyl)thieno[2,3-d]pyrimidin-4-yl]cyclopentane-1,3-diamine Hydrochloride] |  | 8.8 nM | 
18 | C=CC(=O)Nc1cccc(Nc2ccc(CN[C@H]3CC[C@@H](N(C)c4nc(NC)nc5sc(CC(F)(F)F)cc45)C3)cc2)c1 [Example 55, N-{3-[4-({[(1S,3R)-3{methyl[2-(methylamino)-6-(2,2,2-trifluoroethyl)thieno[2,3-d]pyrimidin-4-yl]amino}cyclopentyl]amino}methyl)anilino]phenyl}prop-2-enamide hydrochloride] |  | 9.8 nM | 
19 | COc1cncc(-c2ccc(CN[C@@H]3C[C@H](N(C)c4ncnc5sc(CC(F)(F)F)cc45)C[C@@H]3O)cc2)c1 [Example 51, (1S,2R,4S)-2-({[4(5methoxypyridin-3-yl)phenyl]methyl}amino)-4-{methyl[6-(2,2,2-trilluoroethyl)thieno[2,3-d]pyrimidin-4-yl]amino}cyclopentan-1-ol hydrochloride] |  | 10.1 nM | 
20 | COc1ncc(-c2ccc(CN[C@H]3CC[C@@H](N(C)c4ncnc5sc(CC(F)(F)F)cc45)C3)cc2)s1 [Example 130, (1R,3S)—N^3-{[4-(2-methoxy-1,3-thiazol-5-yl)phenyl]methyl}-N^1-methyl-N^1-[6-(2,2,2-trifluoroethyl)thieno[2,3-d]pyrimidin-4-yl]cyclopentane-1,3-diamine Hydrochloride] | 8.19 |  | 
21 | CC(=O)Nc1ccc(CN[C@H]2CCC[C@@H](Nc3ncnc4sc(CC(F)(F)F)cc34)C2)cc1 [Example 29, N-[4-({[(1S,3R)-3-{[6-(2,2,2-trifluoroethyl)thieno[2,3-d]pyrimidin-4-yl]amino}cyclohexyl]amino}methyl)phenyl]acetamide hydrochloride] |  | 464 nM | 
22 | COc1nc(N(C)[C@H]2C[C@@H](NCc3ccc(-c4cnc(CO)c(OC)c4)cc3)C[C@H]2O)c2cc(CC(F)(F)F)sc2n1 [Example 112, (1R,2S,4R)-4-[({4-[6-(hydroxymethyl)-5-methoxypyridin-3-yl]phenyl}methyl)amino]-2-{[2-methoxy-6-(2,2,2-trifluoroethyl)thieno[2,3-d]pyrimidin-4-yl](methyl)amino}cyclopentan-1-ol hydrochloride] | 9.10 |  | 
